Source: patent US11142515B2, “Pyrazolyl-ureas as kinase inhibitors” (RESPIVERT LIMITED, priority 2014, dated 2021)

Columns and labels:
[1] = molecular target: T1, p38MAPKγ (MAPK12) (Homo sapiens, UniProt P53778); assay: p38 MAPKγ enzyme inhibition (Z-LYTE FRET); assay type: biochemical; conditions: Table 2A; read-out: IC50 Values for Enzyme Inhibition p38 MAPKγ
T1 construct: purchased Life Technologies
T1 sequence (P53778 1-367): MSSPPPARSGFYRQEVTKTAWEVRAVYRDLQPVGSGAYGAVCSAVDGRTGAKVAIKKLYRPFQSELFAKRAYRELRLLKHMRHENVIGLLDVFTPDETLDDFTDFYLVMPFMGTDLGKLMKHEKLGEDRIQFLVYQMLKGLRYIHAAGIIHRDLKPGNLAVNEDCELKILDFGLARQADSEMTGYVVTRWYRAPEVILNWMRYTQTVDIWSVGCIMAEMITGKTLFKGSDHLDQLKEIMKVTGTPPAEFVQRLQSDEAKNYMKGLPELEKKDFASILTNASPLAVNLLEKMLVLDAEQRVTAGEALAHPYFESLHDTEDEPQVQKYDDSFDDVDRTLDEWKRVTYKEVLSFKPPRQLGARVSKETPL
How it was run: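 Z-LYTE read-out: after 1 h protease development, only non-phosphorylated peptide is cleaved, and the donor/acceptor (coumarin/fluorescein) ratio reports phosphorylation. Beforehand, enzyme and compound (stock concentrations 0.0012–40 μg/mL) were preincubated 2 h at RT, then the kinase reaction ran 1 h at RT with peptide and ATP (8 μM and 400 μM stocks).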

[2] = molecular target: T2, c-Src (Homo sapiens, UniProt P12931); assay: c-Src enzyme inhibition (Z-LYTE FRET); assay type: biochemical; conditions: Table 2A
T2 construct: purchased Life Technologies
Method: (§1) The enzyme inhibitory activities of compounds disclosed herein were determined by FRET using synthetic peptides labelled with both donor and acceptor fluorophores (Z-LYTE, Life Technologies, Paisley, UK).
(§2) The relevant enzyme (1000 ng/mL, 1400 ng/mL or 2000 ng/mL respectively, 2.5 μL) was incubated with the test compound (either 40 μg/mL, 12 μg/mL, 4 μg/mL, 1.2 μg/mL, 0.4 μg/mL, 0.12 μg/mL, 0.04 μg/mL, 0.012 μg/mL, 0.004 μg/mL or 0.0012 μg/mL, 2.5 μL each) for 2 h at RT. The FRET peptides (8 μM, 2.5 μL), and appropriate ATP solutions (2.5 μL, 800 μM for c-Src, and 60 μM ATP for HCK and Syk) were then added to the enzyme/compound mixtures and incubated for 1 h at RT. Development reagent (protease, 5 μL) was added for 1 h prior to detection in a fluorescence microplate reader (EnVision, Perkin Elmer).
(§3) In all cases, the site-specific protease cleaves non-phosphorylated peptide only and eliminates the FRET signal. Phosphorylation levels of each reaction were calculated using the ratio of coumarin emission (donor) over fluorescein emission (acceptor), for which low ratios indicate high phosphorylation and high ratios indicate low phosphorylation levels.

[3] = molecular target: T3, Syk (Homo sapiens, UniProt P43405); assay: Syk enzyme inhibition (Z-LYTE FRET); assay type: biochemical; conditions: Table 2A
T3 construct: purchased Life Technologies
Method: as §1, §2, §3

[4] = system: d-U937 cells; assay: Cell viability: MTT assay in differentiated U937 cells; assay type: cell-based, human; conditions: 10 μg/mL
How it was run: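 Differentiated U937 cells exposed to compound at a final 10 μg/mL, either 4 h in 5% FCS RPMI1640 or 24 h in 10% FCS RPMI1640. MTT added for 1 h, formazan dissolved in DMSO, absorbance read at 550 nm; % viability loss relative to 0.5% DMSO vehicle, with increases shown as negative values.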

T2 sequence (P12931 whole entry): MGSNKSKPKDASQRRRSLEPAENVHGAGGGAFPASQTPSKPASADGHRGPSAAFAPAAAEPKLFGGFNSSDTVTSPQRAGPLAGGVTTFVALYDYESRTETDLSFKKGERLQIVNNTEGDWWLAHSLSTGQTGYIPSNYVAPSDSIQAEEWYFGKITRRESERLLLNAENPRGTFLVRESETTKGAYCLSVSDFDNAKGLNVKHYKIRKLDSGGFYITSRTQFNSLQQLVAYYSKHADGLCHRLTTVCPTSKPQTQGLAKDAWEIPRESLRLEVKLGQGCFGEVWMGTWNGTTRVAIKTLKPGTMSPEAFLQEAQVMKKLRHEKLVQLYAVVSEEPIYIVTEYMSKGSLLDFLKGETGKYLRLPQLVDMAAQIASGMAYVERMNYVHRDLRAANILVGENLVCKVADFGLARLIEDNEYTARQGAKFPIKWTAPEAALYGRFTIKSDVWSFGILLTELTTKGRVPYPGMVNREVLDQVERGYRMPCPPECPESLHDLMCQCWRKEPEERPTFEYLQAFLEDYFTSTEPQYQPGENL

Row | Structure (SMILES) | IC50 [1] [nM] | IC50 [2] [nM] | IC50 [3] [µM] | MTT Assay Cell viability at time point indicated in d-U937 Cells, 4 h [4] | MTT Assay Cell viability at time point indicated in d-U937 Cells, 24 h [4]
1 | COc1ccc(-n2nc(C(C)(C)C)cc2NC(=O)Nc2ccc(OCc3ccnc(Nc4cnccn4)c3)c3ccccc23)cn1 [Example 12] | 198 | 105 | > 16.2 | − (−ve and +ve indicate the value is below and above, respectively, the no significant effect threshold defined as 30% inhibition at 10 μg/mL at the time point indicated) | − (−ve and +ve indicate the value is below and above, respectively, the no significant effect threshold defined as 30% inhibition at 10 μg/mL at the time point indicated)
2 | Cc1ccc(-n2nc(C(C)(C)C)cc2NC(=O)Nc2ccc(OCc3ccnc(Nc4cnccn4)c3)c3ccccc23)s1 [Example 13] | 63 | 129 | > 16.5 | − (−ve and +ve indicate the value is below and above, respectively, the no significant effect threshold defined as 30% inhibition at 10 μg/mL at the time point indicated) | − (−ve and +ve indicate the value is below and above, respectively, the no significant effect threshold defined as 30% inhibition at 10 μg/mL at the time point indicated)
3 | Cc1ccc(-n2nc(C(C)(C)C)cc2NC(=O)Nc2ccc(OCc3ccnc(Nc4cncc(N(C)C)n4)c3)c3ccccc23)cc1 [Example 14] | 237 | 29 | > 15.6 | − (−ve and +ve indicate the value is below and above, respectively, the no significant effect threshold defined as 30% inhibition at 10 μg/mL at the time point indicated) | − (−ve and +ve indicate the value is below and above, respectively, the no significant effect threshold defined as 30% inhibition at 10 μg/mL at the time point indicated)
4 | Cc1ccc(-n2nc(C(C)(C)C)cc2NC(=O)Nc2ccc(OCc3ccnc(Nc4cncc(C5CC5)n4)c3)c3ccccc23)cc1 [Example 15] | 160 | 34 | > 15.7 | − (−ve and +ve indicate the value is below and above, respectively, the no significant effect threshold defined as 30% inhibition at 10 μg/mL at the time point indicated) | − (−ve and +ve indicate the value is below and above, respectively, the no significant effect threshold defined as 30% inhibition at 10 μg/mL at the time point indicated)
5 | Cc1ccc(-n2nc(C(C)(C)C)cc2NC(=O)Nc2ccc(OCc3ccnc(Nc4cnc(C5CC5)cn4)c3)c3ccccc23)cc1 [Example 16] | > 7150 | 2520 | > 15.7 | − (−ve and +ve indicate the value is below and above, respectively, the no significant effect threshold defined as 30% inhibition at 10 μg/mL at the time point indicated) | − (−ve and +ve indicate the value is below and above, respectively, the no significant effect threshold defined as 30% inhibition at 10 μg/mL at the time point indicated)
6 | Cc1ccc(-n2nc(C(C)(C)C)cc2NC(=O)Nc2ccc(OCc3ccnc(Nc4cnc(C(=O)NCCN5CCOCC5)cn4)c3)c3ccccc23)cc1 [Example 17] | 74 | 34 | > 13.2 | − (−ve and +ve indicate the value is below and above, respectively, the no significant effect threshold defined as 30% inhibition at 10 μg/mL at the time point indicated) | − (−ve and +ve indicate the value is below and above, respectively, the no significant effect threshold defined as 30% inhibition at 10 μg/mL at the time point indicated)
7 | COc1cncc(Nc2cc(COc3ccc(NC(=O)Nc4cc(C(C)(C)C)nn4-c4ccc(C)cc4)c4ccccc34)ccn2)n1 [Example 18] | 104 | 196 | > 15.9 | − (−ve and +ve indicate the value is below and above, respectively, the no significant effect threshold defined as 30% inhibition at 10 μg/mL at the time point indicated) | + (−ve and +ve indicate the value is below and above, respectively, the no significant effect threshold defined as 30% inhibition at 10 μg/mL at the time point indicated)
8 | Cc1ccc(-n2nc(C(C)(C)C)cc2NC(=O)Nc2ccc(OCc3ccnc(Nc4cnc(C)cn4)c3)c3ccccc23)cc1 [Example 19] | 229 | 151 | > 16.3 | − (−ve and +ve indicate the value is below and above, respectively, the no significant effect threshold defined as 30% inhibition at 10 μg/mL at the time point indicated) | − (−ve and +ve indicate the value is below and above, respectively, the no significant effect threshold defined as 30% inhibition at 10 μg/mL at the time point indicated)
9 | Cc1ccc(-n2nc(C(C)(C)C)cc2NC(=O)Nc2ccc(OCc3ccnc(Nc4cncc(C)n4)c3)c3ccccc23)cc1 [Example 20] | 62 | 150 | > 16.3 | − (−ve and +ve indicate the value is below and above, respectively, the no significant effect threshold defined as 30% inhibition at 10 μg/mL at the time point indicated) | − (−ve and +ve indicate the value is below and above, respectively, the no significant effect threshold defined as 30% inhibition at 10 μg/mL at the time point indicated)
10 | Cc1ccc(-n2nc(C(C)(C)C)cc2NC(=O)Nc2ccc(OCc3ccnc(Nc4cncc(CO)n4)c3)c3ccccc23)cc1 [Example 21] | 31 | 33 | > 15.9 | − (−ve and +ve indicate the value is below and above, respectively, the no significant effect threshold defined as 30% inhibition at 10 μg/mL at the time point indicated) | − (−ve and +ve indicate the value is below and above, respectively, the no significant effect threshold defined as 30% inhibition at 10 μg/mL at the time point indicated)
11 | COc1ccc(-n2nc(C(C)(C)C)cc2NC(=O)Nc2ccc(OCc3ccnc(Nc4cncc(C5CC5)n4)c3)c3ccccc23)cc1 [Example 22] | 377 | 27 | 6.7 | − (−ve and +ve indicate the value is below and above, respectively, the no significant effect threshold defined as 30% inhibition at 10 μg/mL at the time point indicated) | − (−ve and +ve indicate the value is below and above, respectively, the no significant effect threshold defined as 30% inhibition at 10 μg/mL at the time point indicated)
12 | COc1ccc(-n2nc(C(C)(C)C)cc2NC(=O)Nc2ccc(OCc3ccnc(Nc4cnc(CO)cn4)c3)c3ccccc23)cc1 [Example 23] | 209 | 33 | 2.15 | − (−ve and +ve indicate the value is below and above, respectively, the no significant effect threshold defined as 30% inhibition at 10 μg/mL at the time point indicated) | + (−ve and +ve indicate the value is below and above, respectively, the no significant effect threshold defined as 30% inhibition at 10 μg/mL at the time point indicated)
13 | Cc1ccc(-n2nc(C(C)(C)C)cc2NC(=O)Nc2ccc(OCc3ccnc(Nc4cncc(C5CC5)n4)c3)c3ccccc23)s1 [Example 24] | 334 | 42 | 8.83 | − (−ve and +ve indicate the value is below and above, respectively, the no significant effect threshold defined as 30% inhibition at 10 μg/mL at the time point indicated) | − (−ve and +ve indicate the value is below and above, respectively, the no significant effect threshold defined as 30% inhibition at 10 μg/mL at the time point indicated)
